Assay results as given in patent publication US8524716B2, “Macrocyclic indoles as hepatitis C virus inhibitors” (priority 2007, dated 2013).
Like-named read-outs stand apart in the source and are kept apart here.

Key:
[1] = tested on: HCV replicons (NS3-NS5B regions of HCV type 1b) in Huh-Luc cells; assay: HCV replicon assay in Huh-7 luc/neo (Huh-Luc) cells, luciferase readout; format: cell-based; settings: Hepatitis C virus, Huh-7, 72 h, three days incubation, luciferase activity
Text: The compounds of formula (I) were examined for activity in the inhibition of HCV RNA replication in a cellular assay. […] The cellular assay was based on a bicistronic expression construct, as described by Lohmann et al. (1999) Science vol. 285 pp. 110-113 with modifications described by Krieger et al. (2001) Journal of Virology 75: 4614-4624, in a multi-target screening strategy. In essence, the method was as follows.
The assay utilized the stably transfected cell line Huh-7 luc/neo (hereafter referred to as Huh-Luc). This cell line harbors an RNA encoding a bicistronic expression construct comprising the wild type NS3-NS5B regions of HCV type 1b translated from an Internal Ribosome Entry Site (IRES) from encephalomyocarditis virus (EMCV), preceded by a reporter portion (firefly luciferase), and a selectable marker portion (neo^R, neomycine phosphotransferase). The construct is bordered by 5′ and 3′ NTRs (non-translated regions) from HCV type 1b. Continued culture of the replicon cells in the presence of G418 (neo^R) is dependent on the replication of the HCV RNA. The stably transfected replicon cells that express HCV RNA, which replicates autonomously and to high levels, encoding inter alia luciferase, were used for screening the antiviral compounds.
The replicon cells were plated in 384 well plates in the presence of the test and control compounds which were added in various concentrations. Following an incubation of three days, HCV replication was measured by assaying luciferase activity (using standard luciferase assay substrates and reagents and a Perkin Elmer ViewLux™ ultraHTS microplate imager). […] The inhibitory activity of the compound on luciferase activity was monitored on the Huh-Luc cells, enabling a dose-response curve for each test compound. EC50 values were then calculated, which value represents the amount of the compound required to decrease the level of detected luciferase activity by 50%, or more specifically, the ability of the genetically linked HCV replicon RNA to replicate.

HCV NS5B = HCV NS5B (Hepatitis C virus genotype 1b (strain HC-J4), UniProt O92972); assay: biochemical; format: biochemical
Chain of HCV NS5B (O92972 2420-3010 limits assumed): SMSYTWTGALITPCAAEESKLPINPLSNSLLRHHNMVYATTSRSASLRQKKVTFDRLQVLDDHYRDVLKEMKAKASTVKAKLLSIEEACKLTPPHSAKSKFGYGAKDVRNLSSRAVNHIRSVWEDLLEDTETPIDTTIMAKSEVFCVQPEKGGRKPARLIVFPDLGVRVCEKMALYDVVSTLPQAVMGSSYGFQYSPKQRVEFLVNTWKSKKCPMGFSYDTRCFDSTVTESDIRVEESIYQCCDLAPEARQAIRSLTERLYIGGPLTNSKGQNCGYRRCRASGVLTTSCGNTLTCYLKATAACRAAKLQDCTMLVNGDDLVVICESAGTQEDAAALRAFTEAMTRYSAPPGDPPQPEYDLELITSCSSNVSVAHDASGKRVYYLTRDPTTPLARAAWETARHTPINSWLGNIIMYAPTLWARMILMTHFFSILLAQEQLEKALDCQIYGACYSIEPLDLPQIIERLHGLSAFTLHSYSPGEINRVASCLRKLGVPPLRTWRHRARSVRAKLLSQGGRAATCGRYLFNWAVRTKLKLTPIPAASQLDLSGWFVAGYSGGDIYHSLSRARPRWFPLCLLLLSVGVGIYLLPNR
Method: The cDNA encoding NS5B amino acid 1-570 (HC-J4, genotype 1b, pCV-J4L6S, genebank accession number AF054247) was subcloned into the Nhe I and Xho I restriction sites of pET-21b. Expression of the subsequent His-tagged C-terminal 21 amino acid deleted NS5B was performed as follows:
The NS5B expression construct was transformed into E. coli BL21(DE3) (Novagen, Madison, Wis.). Five milliliters of LB-medium supplemented with ampicillin (50 μg/mL) was inoculated with one colony. When the pre-culture reached an optical density of 0.6 measured at 600 nm, it was transferred to fresh LB-medium supplemented with ampicillin, at a ratio of 1:200. Cells were grown to an optical density at 600 nm of 0.6, after which the expression cultures were shifted to a growth temperature of 20° C. following induction with isopropyl-1-thio-β-D-galactopyranoside and MgCl2 at a final concentration of 0.4 mM and 10 μM, respectively. After ten hours of induction, cells were harvested by centrifugation and resuspended in 20 mM Tris-HCl, pH 7.5, 300 mM NaCl, 10% glycerol, 0.1% NP40, 4 mM MgCl2, 5 mM DTT supplemented with EDTA-free Complete Protease Inhibitor (Roche, Basel, Switzerland). Cell suspensions were disrupted by sonication and incubated with 10-15 mg/L of DNase I (Roche, Basel, Switzerland) for 30 minutes. Cell debris was removed through ultracentrifugation at 30,000×g for 1 hour and clarified cell lysate was flash frozen and stored at −80° C. prior to purification.
Clarified cell lysate was thawed and subsequently loaded onto a 5 mL pre-packed HisTrap FF column equilibrated with 25 mM HEPES, pH 7.5, 500 mM NaCl, 10% glycerol and 5 mM DTT. Proteins were eluted with 500 mM imidazole at a flow rate of 1 mL/min. Fractions containing the protein of interest were applied onto a pre-packed 26/10 HiPrep Desalting Column equilibrated with 25 mM HEPES, pH 7.5, 150 mM NaCl, 10% glycerol and 5 mM DTT. The buffer-exchanged NS5B peak was then applied onto a 20 mL Poly-U Sepharose column. Protein was eluted with an increasing salt gradient and fractions collected. Protein purity was assessed on Nu-PAGE pre-cast gels (Invitrogen, Carlsbad, Calif.). Purified NS5B samples were concentrated using Centri-Prep concentrators (Millipore, Billerica, Mass., USA) and protein concentrations were determined by Bradford assay (Pierce, Rockford, Ill., USA).
Measurement of HCV NS5B polymerization activity was performed by evaluating the amount of radio labeled GTP incorporated by the enzyme in a newly synthesized RNA using heteropolymeric RNA template/primer. The high-throughput RNA dependent RNA polymerase (RdRp) assay was carried out in 384-well plates using 100 nM enzyme, 300 nM 5′-biotinylated oligo(rG13)/poly(rC) primer-template, 600 nM of GTP, and 0.1 μCi of [^3H]GTP in 25 mM Tris-HCl, pH 7.5, 5 mM MgCl2, 25 mM KCl, 17 mM NaCl and 3 mM of dithiothreitol (DTT). Test compounds were dissolved in DMSO. The test compounds were added to the preformed polymerase-template complex, and incubated at room temperature for 15 min before the addition of nucleoside triphosphates (NTP). The 30 μl reaction was terminated after 2 h at 25° C. upon addition of 30 μl A PVT-SPA beads (Amersham Biosciences RPNQ0009, 5 mg/ml in 0.5 M EDTA).

[2] = 100 nM enzyme, [3H]GTP incorporation, 2 h at 25° C., read-out: IC50 (μM) Enzymatic assay

Compound | EC50 [1] | IC50 (HCV NS5B) | IC50 (HCV NS5B; [2])
COc1ccc(-c2ccc(Cl)cc2)c(COc2ccc(-c3c(C4CCCCC4)c4ccc5cc4n3CC(=O)NCCCCCCNC5=O)cc2)c1 [Cpd 10, 18-[4-(4′-chloro-4-methoxybiphenyl-2-ylmethoxy)phenyl]-17-cyclohexyl-1,4,11-triazatricyclo[11.5.2.0^16,19]icosa-13(20),14,16(19),17-tetraene-3,12-dione] | > 32 µM | 6.9 µM | –
CN1CC=CCCNC(=O)Cn2c(-c3ccoc3)c(C3CCCCC3)c3ccc(cc32)C(=O)NS1(=O)=O [Cpd 29, 18-Cyclohexyl-19-furan-3-yl-10-methyl-11,11-dioxo-11λ^6-thia-1,4,10,12-tetraaza-tricyclo[12.5.2.017,20]henicosa-7,14(21),15,17(20),18-pentaene-3,13-dione] | 0.65 µM | – | 0.051 µM
COc1ccc(-c2c(C3CCCCC3)c3ccc4cc3n2CC(=O)NCCCCN(C)S(=O)(=O)NC4=O)cc1 [Cpd 25, 17-Cyclohexyl-18-(4-methoxy-phenyl)-9-methyl-10,10-dioxo-10λ^6-thia-1,4,9,11-tetraaza-tricyclo[11.5.2.016,19]icosa-13(20),14,16(19),17-tetraene-3,12-dione] | 1.76 µM | – | 0.18 µM
CS(=O)(=O)N1CCN(c2ccc(N3CCCC3=O)cc2COc2ccc(-c3c(C4CCCCC4)c4ccc5cc4n3CC(=O)NCC/C=C\CCNC5=O)c(F)c2)CC1 [Cpd 15, 17-Cyclohexyl-18-[2-fluoro-4-[2-(4-methanesulfonyl-piperazin-1-yl)-5-(2-oxo-pyrrolidin-1-yl)-benzyloxy]-phenyl]-1,4,11-triaza-tricyclo[11.5.2.0^16,19]icosa-7,13(20),14,16(19),17-pentaene-3,12-dione] | 0.27 µM | – | 1.58 µM
CC(=O)Nc1ccc(N2CCN(S(C)(=O)=O)CC2)c(COc2ccc(-c3c(C4CCCCC4)c4ccc5cc4n3CC(=O)NCC/C=C\CCNC5=O)cc2)c1 [Cpd 5, 17-cyclohexyl-18-[4-[2-(4-methanesulfonylpiperazin-1-yl)-5-acetylamino-benzyloxy]phenyl]-1,4,11-triazatricyclo[11.5.2.0^16,19]icosa-7,13(20),14,16(19),17-pentaene-3,12-dione] | 0.58 µM | – | 0.29 µM
CN1C/C=C\CNC(=O)Cn2c(-c3ccc(OCc4cc(N5CCCC5=O)ccc4N4CCN(S(C)(=O)=O)CC4)cc3F)c(C3CCCCC3)c3ccc(cc32)C(=O)NS1(=O)=O [Cpd 19, 17-cyclohexyl-18-(2-fluoro-4-(2-(4-methanesulfonyl-piperazin-1-yl)-5-(2-oxo-pyrrolidin-1-yl)-benzyloxy)-phenyl)-9-methyl-10,10-dioxo-10λ^6-thia-1,4,9,11-tetraaza-tricyclo[11.5.2.0^16,19]icosa-6,13(20),14,16(19),17-pentaene-3,12-dione] | 2.36 µM | – | 0.042 µM
Cc1nc(C)c(-c2ccc3cc(-c4c(C5CCCCC5)c5ccc6cc5n4CC(=O)NCC/C=C\CS(=O)(=O)NC6=O)ccc3n2)s1 [Cpd 18, 17-cyclohexyl-18-[2-(2,4-dimethyl-thiazol-5-yl)-quinolin-6-yl]-10,10-dioxo-10λ^6-thia-1,4,11-triaza-tricyclo[11.5.2.0^16,19]icosa-7,13(20),14,16(19),17-pentaene-3,12-dione] | 12.8 µM | – | 0.04 µM
COc1ccc(Br)c(COc2ccc(-c3c(C4CCCCC4)c4ccc5cc4n3CC(=O)NCCCCCCNC5=O)cc2)c1 [Cpd 9, 18-[4-(2-bromo-5-methoxybenzyloxy)phenyl]-17-cyclohexyl-1,4,11-triaza-tricyclo[11.5.2.0^16,19]icosa-13(20),14,16(19),17-tetraene-3,12-dione] | 4.8 µM | – | 13 µM
O=C1Cn2c(-c3ccc(OCc4cc(N5CCCC5=O)ccc4N4CCOCC4)cc3)c(C3CCCCC3)c3ccc(cc32)C(=O)NS(=O)(=O)CC=CCCN1 [Cpd 13, 17-Cyclohexyl-18-[4-[2-morpholin-4-yl-5-(2-oxo-pyrrolidin-1-yl)-benzyloxy]-phenyl]-10,10-dioxo-10λ^6-thia-1,4,11-triaza-tricyclo[11.5.2.0^16,19]icosa-7,13(20),14,16(19),17-pentaene-3,12-dione] | 2.36 µM | 0.04 µM | –
